US12516049B2, “Sulfonylurea ring substituted monocyclic β-lactam antibiotics” (priority 2019, dated 2026)
In brackets after ≈: the same amount, converted by molar mass.

Assays:
E.coli CRE18 = assay: MIC, two-fold agar dilution, clinical isolate; type: cell-based; conditions: Escherichia coli; E.coli CRE18; single drug; average of three tests; read-out: MIC
Experimental: (§1) The minimum inhibitory concentration (MIC) of the compound and combination with β-lactamase (MBLs) inhibitors against clinically isolated carbapenem-resistant enterobacteriaceae was determined by the two-fold agar dilution method to determine the activity of the compound to be tested against strains producing MBLs. Antibiotics and enzyme inhibitors were weighed separately and dissolved in sterile ultrapure water or dimethyl sulfoxide to prepare mother liquor, MHA medium was prepared, pH was adjusted to 7.2-7.4, and it was sterilized at 121° C. for 15 minutes and placed in a 55° C. water bath for heat preservation. The mother liquor was diluted to the concentration to be tested by double dilution method, an inoculum liquid was prepared by direct bacterial suspension method, 1 mL of the prepared bacteria solution was withdrawn and putted into the inoculation tube, and a positioning needle and an inoculation needle were installed. A bacterial multi-point inoculator was started for inoculation. After the bacterial solution was absorbed by the agar, the plate was placed upside down in an incubator at 37° C. for 16-20 hours, and the results were observed. The average of three tests was taken.

K.p 115004 = assay: MIC, two-fold agar dilution, clinical isolate; type: cell-based; conditions: K.p 115004; single drug; average of three tests; read-out: MIC
Experimental: as §1

K.p 090339 = assay: MIC, two-fold agar dilution, clinical isolate; type: cell-based; conditions: K.p 090339; single drug; average of three tests; read-out: MIC
Experimental: as §1

E.coli CRE23 = assay: MIC, two-fold agar dilution, clinical isolate; type: cell-based; conditions: Escherichia coli; E.coli CRE23; single drug; average of three tests; read-out: MIC
Experimental: as §1

[1] = tested on: Morganella morganii C1274; assay: MIC, two-fold agar dilution, clinical isolate; type: cell-based; conditions: Morganella morganii C1274; single drug; average of three tests; read-out: MIC
Experimental: as §1

K.p 11544 = assay: MIC, two-fold agar dilution, clinical isolate; type: cell-based; conditions: K.p 11544; single drug; average of three tests; read-out: MIC
Experimental: as §1

E.coli CRE21 = assay: MIC, two-fold agar dilution, clinical isolate; type: cell-based; conditions: Escherichia coli; E.coli CRE21; single drug; average of three tests; read-out: MIC
Experimental: as §1

E.coli 020033 = assay: MIC, two-fold agar dilution, clinical isolate; type: cell-based; conditions: Escherichia coli, single drug, average of three tests
Experimental: as §1

E.coli 020031 = assay: MIC, two-fold agar dilution, clinical isolate; type: cell-based; conditions: Escherichia coli, single drug, average of three tests
Experimental: as §1

E.coli 020028 = assay: MIC, two-fold agar dilution, clinical isolate; type: cell-based; conditions: Escherichia coli, single drug, average of three tests
Experimental: as §1

K.p BAA-2470 = assay: MIC, two-fold agar dilution, clinical isolate; type: cell-based; conditions: K.p BAA-2470; single drug; average of three tests; read-out: MIC
Experimental: as §1

E.coli 115103 = assay: MIC, two-fold agar dilution, clinical isolate; type: cell-based; conditions: Escherichia coli; E.coli 115103; single drug; average of three tests; read-out: MIC
Experimental: as §1

K.p 13249 = assay: MIC, two-fold agar dilution, clinical isolate; type: cell-based; conditions: K.p 13249; single drug; average of three tests; read-out: MIC
Experimental: as §1

K.p HX37 = assay: MIC, two-fold agar dilution, clinical isolate; type: cell-based; conditions: K.p HX37; single drug; average of three tests; read-out: MIC
Experimental: as §1

K.p CRE12 = assay: MIC, two-fold agar dilution, clinical isolate; type: cell-based; conditions: single drug, average of three tests
Experimental: as §1

K.p 6777 = assay: MIC, two-fold agar dilution, clinical isolate; type: cell-based; conditions: K.p 6777; single drug; average of three tests; read-out: MIC
Experimental: as §1

E.coli CRE28 = assay: MIC, two-fold agar dilution, clinical isolate; type: cell-based; conditions: Escherichia coli; E.coli CRE28; single drug; average of three tests; read-out: MIC
Experimental: as §1

K.p HX77 = assay: MIC, two-fold agar dilution, clinical isolate; type: cell-based; conditions: single drug, average of three tests
Experimental: as §1

E.coli C1569 = assay: MIC, two-fold agar dilution, clinical isolate; type: cell-based; conditions: Escherichia coli, single drug, average of three tests
Experimental: as §1

E.coli BAA-2452 = assay: MIC, two-fold agar dilution, clinical isolate; type: cell-based; conditions: Escherichia coli, BAA2452; E.coli BAA-2452; single drug; average of three tests; read-out: MIC
Experimental: as §1

K.p C904 = assay: MIC, two-fold agar dilution, clinical isolate; type: cell-based; conditions: K.p C904; single drug; average of three tests; read-out: MIC
Experimental: as §1

K.p CRE11 = assay: MIC, two-fold agar dilution, clinical isolate; type: cell-based; conditions: K.p CRE11; single drug; average of three tests; read-out: MIC
Experimental: as §1

K.p CRE16 = assay: MIC, two-fold agar dilution, clinical isolate; type: cell-based; conditions: single drug, average of three tests
Experimental: as §1

[2] = tested on: clinically isolated carbapenem-resistant enterobacteriaceae; type: cell-based; conditions: single drug; panel of 26 strains of Table 2
Experimental: as §1, with “Antibiotics and enzyme inhibitors were weighed separately and dissolved in sterile ultrapure water or dimethyl sulfoxide to prepare mother liquor, MHA medium was prepared, pH was adjusted to 7.2-7.4, and it was sterilized at 121° C. for 15 minutes and placed in a 55° C. water bath for heat preservation.” left out

E.coli 115105 = assay: MIC, two-fold agar dilution, clinical isolate; type: cell-based; conditions: Escherichia coli, single drug, average of three tests
Experimental: as §1, with “Antibiotics and enzyme inhibitors were weighed separately and dissolved in sterile ultrapure water or dimethyl sulfoxide to prepare mother liquor, MHA medium was prepared, pH was adjusted to 7.2-7.4, and it was sterilized at 121° C. for 15 minutes and placed in a 55° C. water bath for heat preservation.” left out

E.coli 115101 = assay: MIC, two-fold agar dilution, clinical isolate; type: cell-based; conditions: Escherichia coli; E.coli 115101; single drug; average of three tests; read-out: MIC
Experimental: as §1, with “Antibiotics and enzyme inhibitors were weighed separately and dissolved in sterile ultrapure water or dimethyl sulfoxide to prepare mother liquor, MHA medium was prepared, pH was adjusted to 7.2-7.4, and it was sterilized at 121° C. for 15 minutes and placed in a 55° C. water bath for heat preservation.” left out

K.p HX30 = assay: MIC, two-fold agar dilution, clinical isolate; type: cell-based; conditions: K.p HX30; single drug; average of three tests; read-out: MIC
Experimental: as §1, with “Antibiotics and enzyme inhibitors were weighed separately and dissolved in sterile ultrapure water or dimethyl sulfoxide to prepare mother liquor, MHA medium was prepared, pH was adjusted to 7.2-7.4, and it was sterilized at 121° C. for 15 minutes and placed in a 55° C. water bath for heat preservation.” left out

E. coli ATCC-25922 = assay: Mouse thigh muscle model, E. coli ATCC-25922; type: in vivo; conditions: immunosuppressed female CD-1 mice; E. coli ATCC-25922 1.36E+06 CFU/mouse; 100 mg/kg subcutaneously at 2, 4, 6, 8 h after infection; end point 10 h
Experimental: 9 female CD-1 mice were divided into 3 cages, 3 mice per cage, and were injected intraperitoneally with immunosuppressant cyclophosphamide (150 mg/kg). 24 hours later, 3 cages of mice were injected intraperitoneally again with immunosuppressant cyclophosphamide (100 mg/kg). The strain E. coli ATCC-25922 was recovered on an MHA plate. The recovered colonies were picked and dissolved in saline to prepare E. coli ATCC-25922 bacterial solution with a concentration of 1.36E+07 CFU/mL for use in mouse thigh muscle infection. The amount of bacterial solution injected into the thigh muscle of the experimental mice was 100 μL/mouse, that is, the inoculation amount was 1.36E+06 CFU/mouse. 2 h after infection, the thigh muscle tissue of the mice in control group was taken and placed in 10 mL saline, homogenized, and dotted on a plate with gradient dilution. The specific administration of mice was as follows: (1) 2 h after infection: At the end point of 2 h infection, the thigh muscle tissue of the mice in the first cage was taken and placed in 10 mL saline, homogenized, and dotted on a plate with gradient dilution, two duplications for each mouse. The amount of bacteria loaded in the thigh muscle tissue of the mouse was counted. […] The amount of bacteria loaded in the thigh muscle tissue of the mouse was counted, and the experimental results were sorted and shown in Table 4.

[3] = tested on: Klebsiella pneumonia ATCC BAA-205 (TEM-1/SHV-1/SHV-12); assay: MIC, micro-liquid dilution (CLSI); type: cell-based; conditions: Klebsiella pneumoniae, ATCCBAA205; K. pneumonia ATCC BAA-205, Class A (TEM-1/SHV-1/SHV-12); 20-24 h, 37° C.
Experimental: (§2) Three strains of Klebsiella pneumonia, ATCC BAA-205 (TEM-1/SHV-1/SHV-12), ATCC BAA-1705 (KPC-2), ATCC BAA-2470 (NDM-1), Enterobacter cloacae ATCC BAA-1143 (AmpC), two strains of Escherichia coli ATCC BAA-2523 (OXA-48), ATCC 25922 were used to determine the minimum inhibitory concentration (MIC) of each of the compounds by micro-liquid dilution method according to the Institute of Clinical and Laboratory Standard (CLSI) requirements. […]. The plate was placed upside down at 37° C. and the MIC value was read after 20-24 h of incubation, and the lowest drug concentration that inhibited the growth of bacteria was set as MIC. Colony-Forming Units (CFU) refer to the total number of bacterial colonies per unit volume.

[4] = tested on: Klebsiella pneumonia ATCC BAA-2470 (NDM-1); assay: MIC, micro-liquid dilution (CLSI); type: cell-based; conditions: Klebsiella pneumoniae, ATCCBAA2470; K. pneumonia ATCC BAA-2470, Class B (NDM-1); 20-24 h, 37° C.
Experimental: as §2

[5] = tested on: Enterobacter cloacae ATCC BAA-1143 (AmpC); assay: MIC, micro-liquid dilution (CLSI); type: cell-based; conditions: ATCCBAA1143, E. cloacae ATCC BAA-1143, Class C (AmpC), 20-24 h, 37° C.
Experimental: as §2

[6] = tested on: Klebsiella pneumonia ATCC BAA-1705 (KPC-2); assay: MIC, micro-liquid dilution (CLSI); type: cell-based; conditions: Klebsiella pneumoniae, ATCCBAA1705; K. pneumonia ATCC BAA-1705, Class A (KPC-2); 20-24 h, 37° C.
Experimental: as §2

[7] = tested on: Escherichia coli ATCC BAA-2523 (OXA-48); assay: MIC, micro-liquid dilution (CLSI); type: cell-based; conditions: ATCCBAA2523, E. coli ATCC BAA-2523, Class D (OXA-48), 20-24 h, 37° C., read-out: MIC
Experimental: as §2

[8] = tested on: Escherichia coli ATCC 25922; assay: MIC, micro-liquid dilution (CLSI); type: cell-based; conditions: ATCC25922, E. coli ATCC 25922, 20-24 h, 37° C.
Experimental: as §2

## Nc1nc(/C(=N/OC2(C(=O)O)CC2)C(=O)N[C@@H]2C(=O)N(S(=O)(=O)O)[C@@H]2CN2CCOC2=O)cs1 [LYS 228]
E.coli CRE18
  MIC: 4 µg/mL
K.p 115004
  MIC: 0.25 µg/mL
K.p 090339
  MIC: 0.25 µg/mL
E.coli CRE23
  MIC: 2 µg/mL
[1]
  MIC: 0.25 µg/mL
K.p 11544
  MIC: 0.125 µg/mL
E.coli CRE21
  MIC: 4 µg/mL
E.coli 020033
  MIC: 8 µg/mL
E.coli 020031
  MIC: 4 µg/mL
E.coli 020028
  MIC: 0.125 µg/mL
K.p BAA-2470
  MIC: 0.25 µg/mL
E.coli 115103
  MIC: 8 µg/mL
K.p 13249
  MIC: 0.125 µg/mL
K.p HX37
  MIC: 0.5 µg/mL
K.p CRE12
  MIC: 0.125 µg/mL
K.p 6777
  MIC: 1 µg/mL
E.coli CRE28
  MIC: 4 µg/mL
K.p HX77
  MIC: 0.03 µg/mL
E.coli C1569
  MIC: 4 µg/mL
E.coli BAA-2452
  MIC: 0.5 µg/mL
K.p C904
  MIC: 0.125 µg/mL
K.p CRE11
  MIC: 0.125 µg/mL
K.p CRE16
  MIC: 0.06 µg/mL
[2]
  MIC50: 0.5 µg/mL
  MIC90: 4 µg/mL
E.coli 115105
  MIC: 4 µg/mL
E.coli 115101
  MIC: 4 µg/mL
K.p HX30
  MIC: 2 µg/mL

## Nc1nc(/C(=N/OC2(C(=O)O)CC2)C(=O)N[C@@H]2C(=O)N(S(=O)(=O)O)[C@@H]2CN2CCNS2(=O)=O)cs1 [Compound 1]
E. coli ATCC-25922
  Average CFU of the mouse (amount of bacteria loaded in thigh muscle tissue): 2.25E+05 CFU
[3]
  MIC: 0.5 µg/mL (≈ 0.903 µM)
[4]
  MIC: 0.5 µg/mL (≈ 0.903 µM)
[5]
  MIC: 1 µg/mL (≈ 1.81 µM)
[6]
  MIC: 0.5 µg/mL (≈ 0.903 µM)
[7]
  MIC: 0.5 µg/mL (≈ 0.903 µM)
[8]
  MIC: 1 µg/mL (≈ 1.81 µM)
